Measured values: the supplement of paper PMC10307832

How the values were obtained:
Assay in all cases: relative viability (nuclei count vs DMSO), 5 days (fraction); higher = more cells survive
Erlotinib + Palbociclib = compound: C#Cc1cccc(Nc2ncnc3cc(OCCOC)c(OCCOC)cc23)c1 [Erlotinib] + CC(=O)c1c(C)c2cnc(Nc3ccc(N4CCNCC4)cn3)nc2n(C2CCCC2)c1=O [Palbociclib] (partner 0.5 µM)
How it was run: (§1)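 Nuclei were stained with Hoechst during a one-step fixation (final 0.05% Triton X-100, 1% formaldehyde, 1 ug/ml Hoechst) carried out 5 days after dosing, then counted on 4× images. The cells, lung cancer lines in 1536-well plates, had been dosed by pin tool the day after seeding with one drug alone or a fixed anchor-drug dose plus five library-drug doses (not always all listed) in √10 steps. Relative viability is the nuclei count in treated wells divided by that in vehicle wells, and each value is the median of duplicate plates.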

Erlotinib + Pemetrexed = compound: C#Cc1cccc(Nc2ncnc3cc(OCCOC)c(OCCOC)cc23)c1 [Erlotinib] + Nc1nc2[nH]cc(CCc3ccc(C(=O)N[C@@H](CCC(=O)O)C(=O)O)cc3)c2c(=O)[nH]1 [Pemetrexed] (partner 0.2 µM)
How it was run: as §1

AT9283 + Vorinostat = compound: O=C(Nc1c[nH]nc1-c1nc2ccc(CN3CCOCC3)cc2[nH]1)NC1CC1 [AT9283] + O=C(CCCCCCC(=O)Nc1ccccc1)NO [Vorinostat] (partner 1 µM)
How it was run: as §1

AT9283 + OSI-027 = compound: O=C(Nc1c[nH]nc1-c1nc2ccc(CN3CCOCC3)cc2[nH]1)NC1CC1 [AT9283] + COc1cccc2cc(-c3nc([C@H]4CC[C@H](C(=O)O)CC4)n4ncnc(N)c34)[nH]c12 [OSI-027] (partner 0.5 µM)
How it was run: as §1

Erlotinib + Linsitinib = compound: C#Cc1cccc(Nc2ncnc3cc(OCCOC)c(OCCOC)cc23)c1 [Erlotinib] + C[C@]1(O)C[C@@H](c2nc(-c3ccc4ccc(-c5ccccc5)nc4c3)c3c(N)nccn32)C1 [Linsitinib] (partner 1 µM)
How it was run: as §1

Q: For NCI-H441, which relative viability (Erlotinib + Palbociclib; first compound 0.02 µM) is on record?
A: 0.196

Q: What about the relative viability (Erlotinib + Palbociclib; first compound 0.2 µM) of the same cell line?
A: 0.212

Q: And the relative viability (Erlotinib + Palbociclib; first compound 0.6325 µM)?
A: 0.177

Q: And the relative viability (Erlotinib + Palbociclib; first compound 2 µM)?
A: 0.186

Q: What about the relative viability (Erlotinib + Pemetrexed; first compound 0.02 µM) of the same cell line?
A: 0.284

Q: What about the relative viability (Erlotinib + Pemetrexed; first compound 0.2 µM) of the same cell line?
A: 0.275

Q: What about the relative viability (Erlotinib + Pemetrexed; first compound 0.6325 µM) of the same cell line?
A: 0.259

Q: What about the relative viability (Erlotinib + Pemetrexed; first compound 2 µM) of the same cell line?
A: 0.275

Q: What about the relative viability (AT9283 + Vorinostat; first compound 0.003 µM) of the same cell line?
A: 0.698

Q: And the relative viability (AT9283 + Vorinostat; first compound 0.03 µM)?
A: 0.499

Q: And the relative viability (AT9283 + Vorinostat; first compound 0.09487 µM)?
A: 0.669

Q: What about the relative viability (AT9283 + Vorinostat; first compound 0.3 µM) of the same cell line?
A: 0.307

Q: And the relative viability (AT9283 + OSI-027; first compound 0.003 µM)?
A: 0.532

Q: What about the relative viability (AT9283 + OSI-027; first compound 0.03 µM) of the same cell line?
A: 0.574

Q: And the relative viability (AT9283 + OSI-027; first compound 0.09487 µM)?
A: 0.321

Q: And the relative viability (AT9283 + OSI-027; first compound 0.3 µM)?
A: 0.333

Q: And the relative viability (Erlotinib + Linsitinib; first compound 0.02 µM)?
A: 0.686

Q: What about the relative viability (Erlotinib + Linsitinib; first compound 0.2 µM) of the same cell line?
A: 0.746

Q: And the relative viability (Erlotinib + Linsitinib; first compound 0.6325 µM)?
A: 0.569

Q: What about the relative viability (Erlotinib + Linsitinib; first compound 2 µM) of the same cell line?
A: 0.326
